Data as given in patent EP0754455A1, “PHARMACEUTICAL COMPOSITIONS BASED ON AMINOMETHYLINDOLES AND THEIR THERAPEUTICAL APPLICATION AS NEUROPROTECTORS IN PARKINSON AND ALZHEIMER DISEASES” (CONSEJO SUPERIOR INVESTIGACIONES CIENTIFICAS (CSIC), priority 1995, dated 1996).

Biological target: T1, MAO-A (Rattus norvegicus, UniProt P21396)
T1 construct: human and rat tissue to obtain the isolated forms of monoamine oxidase A and B; from tissue
T1 sequence (P21396 1-526): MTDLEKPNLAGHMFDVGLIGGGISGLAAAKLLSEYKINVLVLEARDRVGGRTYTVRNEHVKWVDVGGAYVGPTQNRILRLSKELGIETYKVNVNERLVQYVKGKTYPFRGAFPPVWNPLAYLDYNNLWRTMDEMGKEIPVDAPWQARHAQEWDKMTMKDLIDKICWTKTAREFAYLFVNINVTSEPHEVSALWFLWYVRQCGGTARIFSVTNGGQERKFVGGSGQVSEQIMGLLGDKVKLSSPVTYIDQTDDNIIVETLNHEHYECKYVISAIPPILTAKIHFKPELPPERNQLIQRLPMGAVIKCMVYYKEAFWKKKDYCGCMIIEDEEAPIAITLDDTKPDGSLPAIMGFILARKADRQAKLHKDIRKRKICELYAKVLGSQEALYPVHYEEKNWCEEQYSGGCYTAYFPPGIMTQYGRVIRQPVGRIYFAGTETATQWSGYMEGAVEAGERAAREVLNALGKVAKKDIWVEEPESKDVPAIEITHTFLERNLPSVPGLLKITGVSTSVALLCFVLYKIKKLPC
Experiment: Kinetic parameters of suicide-type inhibition, MAO-A
Format: biochemical, Sprague-Dawley rat
Excerpt: Based on the apparent velocity constants of the first order (kapp) obtained for each inhibitor, calculations were made of the K1 and K^1c at (according to the method described by M. Avila et al. 1993, Biochem Pharmac 45, 2231-2237). K1 is the affinity constant of the first stage of the reaction and K1 MAO-A / K1 MAO-B the expression of the selectivity.
K^1cat is the velocity constant for the formation of the covalent irreversible complex during the second stage of the process. To compare the values of these constants towards the two forms of MAO, we express the inhibition efficacy as the ratio K^1cat/K1. The value of these constants (see Tables 2 and 3), is the result of three different experiments, with their corresponding SEM.

C#CCNCc1cc2cc(OCc3ccccc3)ccc2[nH]1 [FA-73]
Ki (MAO-A (A..), affinity constant of the first stage, three experiments ± SEM, read-out: K1): 800 nM | K^1cat / K1(10^-3) (MAO-A, inhibition efficacy): 0.1 10^-3 | K^1cat (MAO-A, velocity constant for formation of the covalent irreversible complex, ± SEM): 0.087 ± 0.006 min⁻¹
